Test results taken from patent publication US10676479B2, “Imidazolepyridine compounds and uses thereof” (Novartis AG, priority 2016, dated 2020).

Assays:
EED (1-441)-His protein = EED (1-441)-His protein (Homo sapiens (Human), UniProt O75530); experiment: EED-H3K27Me3 peptide competition binding assay by AlphaScreen; conditions: EED Alphascreen binding Qualified assay
Protocol: Then 4 μL of detection beads mix was added to the plate and incubate in the dark at the rt for 1 h. The final concentration of donor and acceptor beads was 10 μg/mL for each. […] The data were then fit to a dose response equation using the program Helios (Novartis) to get the IC50 values. […] Sebaugh, J. […] Each compound was counter screened to determine if it interfered with the AlphaScreen beads. […] The plates were then incubated for 1 h at rt in dark before being read on EnVison.

[1] = target: wild type PRC2 (wtPRC2) complex (Homo sapiens (Human), UniProt O75530); experiment: EED LC-MS assay; format: biochemical; conditions: EED LC-MS Qualified assay; read-out: (b) IC50
Sequence of wild type PRC2 (wtPRC2) complex (O75530 whole entry): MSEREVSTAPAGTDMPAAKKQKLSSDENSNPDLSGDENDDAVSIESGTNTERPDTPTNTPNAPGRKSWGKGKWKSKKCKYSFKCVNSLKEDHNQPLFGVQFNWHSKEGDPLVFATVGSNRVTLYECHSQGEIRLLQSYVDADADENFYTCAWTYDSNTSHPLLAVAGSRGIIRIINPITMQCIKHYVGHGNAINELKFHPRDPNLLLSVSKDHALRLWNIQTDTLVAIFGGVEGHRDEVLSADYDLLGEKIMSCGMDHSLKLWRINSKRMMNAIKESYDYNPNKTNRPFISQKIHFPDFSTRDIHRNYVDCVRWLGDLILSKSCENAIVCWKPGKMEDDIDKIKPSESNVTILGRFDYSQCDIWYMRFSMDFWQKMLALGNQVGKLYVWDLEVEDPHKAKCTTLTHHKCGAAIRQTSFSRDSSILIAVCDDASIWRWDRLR
Sequence of wild type PRC2 (wtPRC2) complex (Q15910 whole entry partner): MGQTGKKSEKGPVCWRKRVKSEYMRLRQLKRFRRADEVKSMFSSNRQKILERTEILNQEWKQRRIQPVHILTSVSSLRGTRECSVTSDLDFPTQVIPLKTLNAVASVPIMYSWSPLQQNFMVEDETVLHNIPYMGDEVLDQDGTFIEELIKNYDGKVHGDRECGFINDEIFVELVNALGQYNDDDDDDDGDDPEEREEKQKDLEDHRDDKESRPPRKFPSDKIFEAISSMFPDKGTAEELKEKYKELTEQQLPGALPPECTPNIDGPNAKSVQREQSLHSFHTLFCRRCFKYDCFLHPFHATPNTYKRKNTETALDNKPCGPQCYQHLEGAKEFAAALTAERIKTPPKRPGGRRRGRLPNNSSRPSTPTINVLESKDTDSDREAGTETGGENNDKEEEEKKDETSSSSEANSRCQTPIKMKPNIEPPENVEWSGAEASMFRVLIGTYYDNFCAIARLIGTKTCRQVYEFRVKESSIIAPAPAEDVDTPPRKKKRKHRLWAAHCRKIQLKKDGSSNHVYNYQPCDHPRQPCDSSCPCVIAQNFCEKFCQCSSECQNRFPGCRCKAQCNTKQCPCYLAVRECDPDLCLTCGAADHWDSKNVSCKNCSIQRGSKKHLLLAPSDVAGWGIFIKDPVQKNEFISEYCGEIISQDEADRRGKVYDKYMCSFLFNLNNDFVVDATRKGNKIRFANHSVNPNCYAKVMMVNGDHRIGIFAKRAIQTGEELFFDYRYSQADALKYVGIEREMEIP
Sequence of wild type PRC2 (wtPRC2) complex (Q15022 whole entry partner): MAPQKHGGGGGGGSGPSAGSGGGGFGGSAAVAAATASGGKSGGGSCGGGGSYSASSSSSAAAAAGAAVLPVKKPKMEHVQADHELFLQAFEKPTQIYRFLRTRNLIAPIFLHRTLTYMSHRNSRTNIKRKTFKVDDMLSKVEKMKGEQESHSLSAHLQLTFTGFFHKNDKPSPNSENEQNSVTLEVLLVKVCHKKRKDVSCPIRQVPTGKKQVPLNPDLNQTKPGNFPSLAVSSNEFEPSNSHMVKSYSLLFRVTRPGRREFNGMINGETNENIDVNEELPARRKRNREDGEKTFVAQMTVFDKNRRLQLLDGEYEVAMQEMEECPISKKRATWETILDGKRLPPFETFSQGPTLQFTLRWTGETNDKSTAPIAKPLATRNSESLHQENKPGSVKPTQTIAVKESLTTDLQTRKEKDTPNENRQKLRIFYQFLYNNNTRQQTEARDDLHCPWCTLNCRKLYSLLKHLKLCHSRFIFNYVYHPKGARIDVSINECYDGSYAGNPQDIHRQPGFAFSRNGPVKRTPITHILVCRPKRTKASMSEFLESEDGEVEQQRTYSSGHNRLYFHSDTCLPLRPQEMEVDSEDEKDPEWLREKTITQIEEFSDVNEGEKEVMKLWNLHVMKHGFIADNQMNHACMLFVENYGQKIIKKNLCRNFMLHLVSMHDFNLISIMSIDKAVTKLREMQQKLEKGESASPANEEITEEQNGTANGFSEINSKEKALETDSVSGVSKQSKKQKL
Protocol: EED LC-MS Assay Representative compounds of the present invention were serially and separately diluted 3-fold in DMSO to obtain a total of eight or twelve concentrations. […] A 6 μL solution of 3 μM of the peptide substrate H3K27Me0 (histone H3[21-44]-biotin) in reaction buffer was added to initiate each reaction. […] The data were then fit to a dose response equation using the program Helios to get the IC50 values of the test compound.

[2] = test system: H3K27 methylation in G401 cell; experiment: ELISA (H3K27 methylation) assay; format: cell-based; conditions: Homo sapiens, G-401, ELISA Qualified assay, 48 h, read-out: (c) IC50
Protocol: ELISA (H3K27 Methylation) Assay
Representative compounds of the present invention were serially and separately diluted 3-fold in DMSO to obtain a total of eight or twelve concentrations. Then the compounds were added to G401 cell cultured in 384-well plate at 1:500 dilution to obtain the highest concentration of 20 μM. The cells were further cultured for 48 h before ELISA procedure.
ELISA protocol: Cell lysates were transferred to the wells of a 384-well plate and the final volume was adjusted to 50 μL per well with PBS. The plate was sealed, centrifuged at 2,000 rpm for 2 min and incubated at 4° C. for about 16 h. The plate was washed with TBST buffer (1×TBS (10×TBS: 24.2 g Tris (Sigma, T6066), 80 g NaCl (Sigma, S3014) to 1 L of water and adjust pH to 7.6 with HCl) with 0.1% Tween-20). Blocking buffer (TBST, 5% BSA; 50 μL per well) was added and the plate was incubated for 1 h at rt. The blocking buffer was removed and primary antibody was added (30 μL per well). […] The primary antibody was incubated in the plate at rt for 1 h. The wells were washed with TBST and incubated with secondary antibody for 1 h at rt. […] After 1 h of incubation at rt, the wells were washed with TBST. […] The signal was read using a PerkinElmer Envision Reader. The H3K27 methylation readouts were normalized using H3 signal and then percentage inhibition was calculated against the samples treated with DMSO. The data were then fit to a dose response curve using the program Helios to get the IC50 values of the test compound.

Sequence of EED (1-441)-His protein (O75530 whole entry): as the sequence (O75530 whole entry) above

Row | IC50 (EED (1-441)-His protein) [nM] | IC50 [1] [nM] | IC50 [2] [nM] | SMILES
1 | 12.7 | 12.9 | 33.6 | NS(=O)(=O)c1ccc(-c2cnc(NCc3c(F)ccc4c3CCO4)n3cncc23)cc1 [Example 23, 4-(5-(((5-fluoro-2,3-dihydrobenzofuran-4-yl)methyl)amino)imidazo[1,5-c]pyrimidin-8-yl)benzenesulfonamide]
2 | 8.3 | 19.1 | 22.5 | Cc1nc(OC(C)C)ncc1-c1cnc(NCc2c(F)ccc3c2CCO3)n2cncc12 [Example 61, N-((5-fluoro-2,3-dihydrobenzofuran-4-yl)methyl)-8-(2-isopropoxy-4-methylpyrimidin-5-yl)imidazo[1,5-c]pyrimidin-5-amine]
3 | 10.4 | 23.4 | 4.9 | Cc1ncc(-c2cnc(NCc3c(F)ccc4c3CCO4)n3cnc([S+]([O-])c4ccccc4)c23)c(C)n1 (stereo not drawn) [Example 14, 8-(2,4-Dimethylpyrimidin-5-yl)-N-((5-fluoro-2,3-dihydrobenzofuran-4-yl)methyl)-1-(phenylsulfinyl)imidazo[1,5-c]pyrimidin-5-amine]
4 | 4.4 | 12.6 | 8.1 | Cc1cc(C(=O)N(C)C)ncc1-c1cnc(NCc2c(F)ccc3c2CCO3)n2cncc12 [Example 54, 5-(5-(((5-fluoro-2,3-dihydrobenzofuran-4-yl)methyl)amino)imidazo[1,5-c]pyrimidin-8-yl)-N,N,4-trimethylpicolinamide]
5 | 9.1 | 17.5 | 7.6 | CC(=O)c1ncn2c(NCc3c(F)ccc4c3CCO4)ncc(-c3cnc(C)nc3C)c12 [Example 16, 1-(8-(2,4-Dimethylpyrimidin-5-yl)-5-(((5-fluoro-2,3-dihydrobenzofuran-4-yl)methyl)amino)-imidazo[1,5-c]pyrimidin-1-yl)ethan-1-one]
6 | 5.3 | 16.7 | 6.6 | CS(=O)(=O)c1ccc(-c2cnc(NCc3c(F)ccc4c3CCO4)n3cnc(C#N)c23)cn1 [Example 79, 5-(((5-fluoro-2,3-dihydrobenzofuran-4-yl)methyl)amino)-8-(6-(methylsulfonyl)pyridin-3-yl)imidazo[1,5-c]pyrimidine-1-carbonitrile]
7 | 27.9 | 48.6 | 86.8 | N#Cc1ncn2c(NCc3c(F)ccc4c3CCO4)ncc(Br)c12 [Example 70, 8-bromo-5-(((5-fluoro-2,3-dihydrobenzofuran-4-yl)methyl)amino)imidazo[1,5-c]pyrimidine-1-carbonitrile]
8 | 2.3 | 5.7 | 13.1 | Cc1nc(N2CC(C)NC(C)C2)ncc1-c1cnc(NCc2c(F)ccc3c2CCO3)n2cnc(C#N)c12 (stereo not drawn) [Example 83, 8-(2-(3,5-dimethylpiperazin-1-yl)-4-methylpyrimidin-5-yl)-5-(((5-fluoro-2,3-dihydrobenzofuran-4-yl)methyl)amino)imidazo[1,5-c]pyrimidine-1-carbonitrile]
9 | 15.2 | 29.8 | 7.8 | Cc1ncc(-c2cnc(NCc3c(F)ccc4c3CCO4)n3cnc(S(=O)(=O)c4ccccc4)c23)c(C)n1 [Example 15, 8-(2,4-dimethylpyrimidin-5-yl)-N-((5-fluoro-2,3-dihydrobenzofuran-4-yl)methyl)-1-(phenylsulfonyl)imidazo[1,5-c]pyrimidin-5-amine]
10 | 5.4 | 5.9 | 0.7 | CCOC(=O)c1ncn2c(NCc3c(F)ccc4c3CCO4)ncc(-c3ccc(S(C)(=O)=O)cc3)c12 [Example 92, ethyl 5-(((5-fluoro-2,3-dihydrobenzofuran-4-yl)methyl)amino)-8-(4-(methylsulfonyl)phenyl)imidazo[1,5-c]pyrimidine-1-carboxylate]
11 | 8.6 | 19.5 | 64.5 | OCCNc1ncc(-c2cnc(NCc3c(F)ccc4c3CCO4)n3cncc23)cn1 [Example 44, 2-((5-(5-(((5-fluoro-2,3-dihydrobenzofuran-4-yl)methyl)amino)imidazo[1,5-c]pyrimidin-8-yl)pyrimidin-2-yl)amino)ethan-1-ol]
12 | 3.6 | 13.3 | 9.1 | Cc1ncc(-c2cnc(NCc3c(F)ccc4c3CCO4)n3cnc(S(C)(=O)=O)c23)c(C)n1 [Example 101, 8-(2,4-dimethylpyrimidin-5-yl)-N-((5-fluoro-2,3-dihydrobenzofuran-4-yl)methyl)-1-(methylsulfonyl)imidazo[1,5-c]pyrimidin-5-amine]
13 | 13 | 25.5 | 98.7 | Cc1nc(C(F)(F)CN2CCCC2)ccc1-c1cnc(NCc2c(F)ccc3c2CCO3)n2cncc12 [Example 59, 8-(6-(1,1-difluoro-2-(pyrrolidin-1-yl)ethyl)-2-methylpyridin-3-yl)-N-((5-fluoro-2,3-dihydrobenzofuran-4-yl)methyl)imidazo[1,5-c]pyrimidin-5-amine]
14 | 5.1 | 8.4 | 17.9 | Cc1cc(-c2cnc(NCc3c(F)ccc4c3CCO4)n3cncc23)n(C)n1 [Example 45, 8-(1,3-dimethyl-1H-pyrazol-5-yl)-N-((5-fluoro-2,3-dihydrobenzofuran-4-yl)methyl)imidazo[1,5-c]pyrimidin-5-amine]
15 | 12.3 | 26.7 | 12.6 | CNC(=O)c1ncn2c(NCc3c(F)ccc4c3CCO4)ncc(-c3cccnc3C)c12 [Example 2, 5-(((5-Fluoro-2,3-dihydrobenzofuran-4-yl)methyl)amino)-N-methyl-8-(2-methylpyridin-3-yl)imidazo[1,5-c]pyrimidine-1-carboxamide]
16 | 10.4 | 8.5 | 79.5 | Cc1cc(S(C)(=O)=O)ccc1-c1cnc(NCc2c(F)ccc3c2CCO3)n2cncc12 [Example 42, N-((5-fluoro-2,3-dihydrobenzofuran-4-yl)methyl)-8-(2-methyl-4-(methylsulfonyl)phenyl)imidazo[1,5-c]pyrimidin-5-amine]
17 | 6.8 | 13.7 | 13.2 | Cc1ncc(-c2cnc(NCc3c(F)ccc4c3CCO4)n3cnc(C#N)c23)c(C)n1 [Example 3, 8-(2,4-dimethylpyrimidin-5-yl)-5-(((5-fluoro-2,3-dihydrobenzofuran-4-yl)methyl)amino)imidazo[1,5-c]pyrimidine-1-carbonitrile]
18 | 10.1 | 15.1 | 46 | CN(C)S(=O)(=O)c1ccc(-c2cnc(NCc3c(F)ccc4c3CCO4)n3cncc23)cc1 [Example 18, 4-(5-(((5-fluoro-2,3-dihydrobenzofuran-4-yl)methyl)amino)imidazo[1,5-c]pyrimidin-8-yl)-N,N-dimethylbenzenesulfonamide]
19 | 8.5 | 8 | 32 | CCOC(=O)c1ncn2c(NCc3c(F)ccc4c3CCO4)ncc(Br)c12 [Example 91, ethyl 8-bromo-5-(((5-fluoro-2,3-dihydrobenzofuran-4-yl)methyl)amino)imidazo[1,5-c]pyrimidine-1-carboxylate]
20 | 11.6 | 18.6 | 30.4 | Cc1ncc(-c2cnc(NCc3c(F)ccc4c3CCO4)n3cnc(CO)c23)c(C)n1 [Example 8, (8-(2,4-Dimethylpyrimidin-5-yl)-5-(((5-fluoro-2,3-dihydrobenzofuran-4-yl)methyl)amino)imidazo[1,5-c]pyrimidin-1-yl)methanol]
21 | 24 | 24.8 | 31.6 | CCOC(=O)c1ncn2c(NCc3c(F)cccc3OC)ncc(-c3cnc(C)nc3C)c12 [Example 98, ethyl 8-(2,4-dimethylpyrimidin-5-yl)-5-((2-fluoro-6-methoxybenzyl)amino)imidazo[1,5-c]pyrimidine-1-carboxylate]
22 | 15.6 | 29.5 | 32.5 | Cc1ncn2c(NCc3c(F)ccc4c3CCO4)ncc(-c3ccc(S(C)(=O)=O)cc3)c12 [Example 4, N-((5-fluoro-2,3-dihydrobenzofuran-4-yl)methyl)-1-methyl-8-(4-(methylsulfonyl)phenyl)imidazo[1,5-c]pyrimidin-5-amine]
23 | 8.1 | 14.3 | 42.4 | Cc1ncncc1-c1cnc(NCc2c(F)ccc3c2CCO3)n2cncc12 [Example 47, N-((5-fluoro-2,3-dihydrobenzofuran-4-yl)methyl)-8-(4-methylpyrimidin-5-yl)imidazo[1,5-c]pyrimidin-5-amine]
